The results in this text go back to ChEMBL document CHEMBL4359919, “Discovery and synthesis of 3- and 21-substituted fusidic acid derivatives as reversal agents of P-glycoprotein-mediated multidrug resistance” (Eur J Med Chem, 2019).

Data set [1] can be described thus: Cytotoxicity against human KBV cells assessed as cell survival at 5 uM after 72 hrs by MTT assay relative to control. Format: cell-based. Conditions: read-out: Survival.
Data set [2] concerns the target T1, ATP-dependent translocase ABCB1 (Homo sapiens, UniProt P08183). Nature of the data set: Reversal of P-gp-mediated multidrug resistance in human KBV cells assessed as potentiation of paclitaxel-induced cytotoxicity by measuring cell survival at 5 uM after 72 hrs by MTT assay (reference value: 100.58 +/- 7.78%). Format: cell-based. (In general: Tetrazolium assays rely on reduction of a dye to a coloured formazan, in cell work by metabolically active cells.)

Data set [3] has as its target T1, ATP-dependent translocase ABCB1. Nature of the data set: Reversal of P-gp-mediated multidrug resistance in human KBV cells assessed as potentiation of paclitaxel-induced cell cycle arrest by measuring accumulation at G2/M phase at 5 to 10 uM after 24 hrs by RNase/propidium iodide staining based flow cytometry.
The target is the same in data set [4]. Nature of the data set: Inhibition of P-gp-mediated Rh-123 efflux in human KBV cells assessed as Rh-123 accumulation at 10 uM preincubated for 2 hrs followed by Rh-123 addition measured after 30 mins by flow cytometry. Format: cell-based. Conditions: 0.5 h. (In general: Flow cytometry measures light scatter and fluorescence of single cells or particles in a stream.)

The species entered for data set [5] is Homo sapiens. Nature of the data set: Downregulation of P-gp protein expression in human KBV cells at 5 to 10 uM after 24 hrs by western blot analysis. Format: functional, cell-based.
Data set [6] deals with T1, ATP-dependent translocase ABCB1. Nature of the data set: Stimulation of P-gp ATPase activity (unknown origin) assessed as increase in ATP consumption at 0.5 to 1 mM preincubated for 5 mins followed by Mg-ATP addition by P-gp-Glo luminescence assay.
Data set [7] shares this target. Nature of the data set: Reversal of P-gp-mediated multidrug resistance in human KBV cells assessed as potentiation of paclitaxel-induced apoptosis after 24 hrs by RNase/propidium iodide staining based flow cytometry. Format: cell-based.
Data set [8] shares this target. Kind of data set: Inhibition of P-gp-mediated Flutax1 efflux in human KBV cells assessed as Flutax1 accumulation at 2 to 10 uM preincubated for 3 hrs followed by Flutax1 addition measured after 1 hr by flow cytometry. Format: cell-based.

Active and inactive are the calls of the source. No cut-off for these calls is given here.

T1 sequence (P08183 whole entry): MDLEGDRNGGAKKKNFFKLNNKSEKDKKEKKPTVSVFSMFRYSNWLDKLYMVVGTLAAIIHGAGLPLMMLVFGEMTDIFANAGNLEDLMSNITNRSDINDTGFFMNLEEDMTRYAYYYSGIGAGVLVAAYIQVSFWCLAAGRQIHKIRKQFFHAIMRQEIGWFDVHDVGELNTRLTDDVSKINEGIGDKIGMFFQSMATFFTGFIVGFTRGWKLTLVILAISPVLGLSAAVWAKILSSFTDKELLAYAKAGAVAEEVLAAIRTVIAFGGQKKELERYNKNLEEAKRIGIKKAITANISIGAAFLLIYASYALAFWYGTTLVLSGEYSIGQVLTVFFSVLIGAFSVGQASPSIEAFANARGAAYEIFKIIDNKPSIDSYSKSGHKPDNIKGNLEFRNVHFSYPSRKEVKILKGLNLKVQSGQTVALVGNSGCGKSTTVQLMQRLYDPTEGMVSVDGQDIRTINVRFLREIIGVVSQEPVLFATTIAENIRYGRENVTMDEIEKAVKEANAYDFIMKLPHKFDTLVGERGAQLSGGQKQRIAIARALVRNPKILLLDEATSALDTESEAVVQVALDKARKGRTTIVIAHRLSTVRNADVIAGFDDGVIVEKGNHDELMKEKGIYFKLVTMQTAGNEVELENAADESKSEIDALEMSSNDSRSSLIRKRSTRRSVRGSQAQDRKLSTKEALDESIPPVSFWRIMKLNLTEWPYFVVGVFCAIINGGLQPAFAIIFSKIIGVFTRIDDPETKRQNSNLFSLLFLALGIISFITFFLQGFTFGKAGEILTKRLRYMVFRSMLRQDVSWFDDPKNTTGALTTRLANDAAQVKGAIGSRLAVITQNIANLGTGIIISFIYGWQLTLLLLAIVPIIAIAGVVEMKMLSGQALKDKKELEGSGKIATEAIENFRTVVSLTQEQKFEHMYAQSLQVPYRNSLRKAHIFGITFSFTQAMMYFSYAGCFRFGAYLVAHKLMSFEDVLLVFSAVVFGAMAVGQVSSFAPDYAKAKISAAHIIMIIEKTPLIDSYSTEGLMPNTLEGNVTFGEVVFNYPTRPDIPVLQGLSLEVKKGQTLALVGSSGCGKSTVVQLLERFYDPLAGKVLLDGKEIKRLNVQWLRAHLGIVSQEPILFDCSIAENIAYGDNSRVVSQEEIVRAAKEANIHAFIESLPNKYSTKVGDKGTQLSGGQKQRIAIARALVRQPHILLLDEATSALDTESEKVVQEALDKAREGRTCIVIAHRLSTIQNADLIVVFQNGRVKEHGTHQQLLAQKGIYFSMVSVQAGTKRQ

Consider `CC(=O)O[C@H]1C[C@@]2(C)[C@@H](CC(=O)[C@H]3[C@@]4(C)CC[C@@H](OC(=O)CCCCCO[N+](=O)[O-])[C@@H](C)[C@@H]4CC[C@@]32C)/C1=C(\CCC=C(C)C)C(=O)OCc1ccccc1`, for which the viability at 72 h, 5 µM in data set [1] was 115%. For the same compound, the Survival in data set [2] came out at 62.17%.

For the compound `CC(=O)O[C@H]1C[C@@]2(C)[C@@H](C[C@@H](O)[C@H]3[C@@]4(C)CC[C@@H](OC(=O)CCC(=O)Oc5ccc(CCO[N+](=O)[O-])cc5)[C@@H](C)[C@@H]4CC[C@@]32C)/C1=C(\CCC=C(C)C)C(=O)OCc1ccccc1`, in data set [1], the viability at 72 h, 5 µM stood at 114%. Moreover, in data set [2], the Survival came out at 99.95%.

As for `CC(=O)O[C@H]1C[C@@]2(C)[C@@H](C[C@@H](O)[C@H]3[C@@]4(C)CC[C@@H](OC(=O)c5ccccc5C(=O)N5CCOCC5)[C@@H](C)[C@@H]4CC[C@@]32C)/C1=C(\CCC=C(C)C)C(=O)OCc1ccccc1`, the viability at 72 h, 5 µM in data set [1] was 76%. Moreover, the Survival in data set [2] was 37.96%.

For `CC(=O)O[C@H]1C[C@@]2(C)[C@@H](C[C@@H](O)[C@H]3[C@@]4(C)CC[C@@H](OC(=O)CCC(=O)Nc5ccc(N)cc5)[C@@H](C)[C@@H]4CC[C@@]32C)/C1=C(\CCC=C(C)C)C(=O)OCc1ccccc1`, in data set [1], the viability at 72 h, 5 µM stood at 136%. Further, the Survival in data set [2] stood at 22.26%.

In the case of `CC(=O)O[C@H]1C[C@@]2(C)[C@@H](C[C@@H](O)[C@H]3[C@@]4(C)CC[C@@H](OC(=O)CCCCCO[N+](=O)[O-])[C@@H](C)[C@@H]4CC[C@@]32C)/C1=C(\CCC=C(C)C)C(=O)OCc1ccccc1`, the viability at 72 h, 5 µM in data set [1] was 94.1%. Moreover, in data set [2], the Survival is given as 20.79%.

Take `CC(=O)O[C@H]1C[C@@]2(C)[C@@H](C[C@@H](O)[C@H]3[C@@]4(C)CC[C@@H](O)[C@@H](C)[C@@H]4CC[C@@]32C)/C1=C(\CCC=C(C)C)C(=O)O` [FUSIDIC ACID]: in data set [1], the viability at 72 h, 5 µM turned out to be 84.7%. Also, the Survival in data set [2] turned out to be 87.77%.

Take `CC(=O)O[C@H]1C[C@@]2(C)[C@@H](C[C@@H](O)[C@H]3[C@@]4(C)CC[C@@H](OC(=O)CCCCO[N+](=O)[O-])[C@@H](C)[C@@H]4CC[C@@]32C)/C1=C(\CCC=C(C)C)C(=O)OCc1ccccc1`: the viability at 72 h, 5 µM in data set [1] was determined as 107%. The Survival in data set [2] turned out to be 96.92%.

Consider `CC(=O)O[C@H]1C[C@@]2(C)[C@@H](C[C@@H](O)[C@H]3[C@@]4(C)CC[C@@H](OC(=O)c5ccccc5C(=O)N5CCN(C)CC5)[C@@H](C)[C@@H]4CC[C@@]32C)/C1=C(\CCC=C(C)C)C(=O)OCc1ccccc1`, for which, in data set [1], the viability at 72 h, 5 µM turned out to be 100%. Also, the Survival in data set [2] was 69.5%.

Turning to `CC(=O)O[C@H]1C[C@@]2(C)[C@@H](C[C@@H](O)[C@H]3[C@@]4(C)CC[C@@H](O)[C@@H](C)[C@@H]4CC[C@@]32C)/C1=C(\CCC=C(C)C)C(=O)OCc1ccccc1`, the viability at 72 h, 5 µM in data set [1] is 92%. The result in data set [3], in data set [6] and in data set [7] was Active. Moreover, the “inhibition (INH)” value in data set [4] and in data set [8] was “Active” throughout. Moreover, the result in data set [5] was inactive. Also, in data set [2], the Survival stood at 18.6%.

Consider `COc1ccc(CCN(C)CCCC(C#N)(c2ccc(OC)c(OC)c2)C(C)C)cc1OC` (stereo not given) [VERAPAMIL], for which the Survival in data set [2] is on record as 23.05%.

Regarding `CCN1CCN(C(=O)CCC(=O)O[C@@H]2CC[C@@]3(C)[C@@H](CC[C@@]4(C)[C@H]3[C@H](O)C[C@H]3/C(=C(\CCC=C(C)C)C(=O)OCc5ccccc5)[C@@H](OC(C)=O)C[C@@]34C)[C@@H]2C)CC1`, the viability at 72 h, 5 µM in data set [1] was 99.8%. Also, the Survival in data set [2] came out at 34.43%.

As to `CCN1CCN(C(=O)c2ccccc2C(=O)O[C@@H]2CC[C@@]3(C)[C@@H](CC[C@@]4(C)[C@H]3[C@H](O)C[C@H]3/C(=C(\CCC=C(C)C)C(=O)OCc5ccccc5)[C@@H](OC(C)=O)C[C@@]34C)[C@@H]2C)CC1`, the viability at 72 h, 5 µM in data set [1] was determined as 27.3%. The Survival in data set [2] came to 20.76%.

For the compound `CC(=O)O[C@H]1C[C@@]2(C)[C@@H](C[C@@H](O)[C@H]3[C@@]4(C)CC[C@@H](OC(=O)CCC(=O)N5CCCCC5)[C@@H](C)[C@@H]4CC[C@@]32C)/C1=C(\CCC=C(C)C)C(=O)OCc1ccccc1`, the viability at 72 h, 5 µM in data set [1] amounted to 122%. Besides, in data set [2], the Survival is 35.31%.

With `CC(=O)O[C@H]1C[C@@]2(C)[C@@H](C[C@@H](O)[C@H]3[C@@]4(C)CC[C@@H](OC(=O)c5ccccc5C(=O)OCCc5ccc(OCCO[N+](=O)[O-])cc5)[C@@H](C)[C@@H]4CC[C@@]32C)/C1=C(\CCC=C(C)C)C(=O)OCc1ccccc1`, in data set [1], the viability at 72 h, 5 µM is 85.9%. Moreover, in data set [2], the Survival came out at 90.45%.

For `CC(=O)O[C@H]1C[C@@]2(C)[C@@H](CC(=O)[C@H]3[C@@]4(C)CCC(=O)[C@@H](C)[C@@H]4CC[C@@]32C)/C1=C(\CCC=C(C)C)C(=O)OCc1ccccc1`, in data set [1], the viability at 72 h, 5 µM is 96.6%. Also, the Survival in data set [2] worked out at 27.6%.

For `CC(=O)O[C@H]1C[C@@]2(C)[C@@H](C[C@@H](O)[C@H]3[C@@]4(C)CC[C@@H](OC(=O)CCC(=O)N5CCN(C)CC5)[C@@H](C)[C@@H]4CC[C@@]32C)/C1=C(\CCC=C(C)C)C(=O)OCc1ccccc1`, the viability at 72 h, 5 µM in data set [1] worked out at 30.1%. Further, the Survival in data set [2] amounted to 33.67%.

As for `CC(=O)O[C@H]1C[C@@]2(C)[C@@H](C[C@@H](O)[C@H]3[C@@]4(C)CC[C@@H](OC(=O)CCC(=O)Nc5cccc(N)c5)[C@@H](C)[C@@H]4CC[C@@]32C)/C1=C(\CCC=C(C)C)C(=O)OCc1ccccc1`, in data set [1], the viability at 72 h, 5 µM is 135%. Besides, the Survival in data set [2] was 24.8%.

As to `CC(=O)O[C@H]1C[C@@]2(C)[C@@H](C[C@@H](O)[C@H]3[C@@]4(C)CC[C@@H](OC(=O)CCC(=O)N5CCOCC5)[C@@H](C)[C@@H]4CC[C@@]32C)/C1=C(\CCC=C(C)C)C(=O)OCc1ccccc1`, in data set [1], the viability at 72 h, 5 µM is 20.5%. In addition, the Survival in data set [2] is reported as 31.93%.

As to `CC(=O)O[C@H]1C[C@@]2(C)[C@@H](C[C@@H](O)[C@H]3[C@@]4(C)CC[C@@H](OC(=O)c5ccccc5C(=O)Nc5cccc(N)c5)[C@@H](C)[C@@H]4CC[C@@]32C)/C1=C(\CCC=C(C)C)C(=O)OCc1ccccc1`, the viability at 72 h, 5 µM in data set [1] was found to be 95.8%. For the same compound, the Survival in data set [2] came out at 29.28%.

Turning to `CC(=O)O[C@H]1C[C@@]2(C)[C@@H](C[C@@H](O)[C@H]3[C@@]4(C)CC[C@@H](OC(=O)c5ccccc5C(=O)Nc5ccc(N)cc5)[C@@H](C)[C@@H]4CC[C@@]32C)/C1=C(\CCC=C(C)C)C(=O)OCc1ccccc1`, in data set [1], the viability at 72 h, 5 µM amounted to 118%. The Survival in data set [2] is 23.58%.

With `CC(=O)O[C@H]1C[C@@]2(C)[C@@H](C[C@@H](O)[C@H]3[C@@]4(C)CC[C@@H](OC(=O)CCC(=O)OCCc5ccc(OCCO[N+](=O)[O-])cc5)[C@@H](C)[C@@H]4CC[C@@]32C)/C1=C(\CCC=C(C)C)C(=O)OCc1ccccc1`, the viability at 72 h, 5 µM in data set [1] is 110%. In data set [2], the Survival was determined as 101.31%.

Take `CC(=O)O[C@H]1C[C@@]2(C)[C@@H](C[C@@H](O)[C@H]3[C@@]4(C)CC[C@@H](OC(=O)c5ccccc5C(=O)N5CCCCC5)[C@@H](C)[C@@H]4CC[C@@]32C)/C1=C(\CCC=C(C)C)C(=O)OCc1ccccc1`: the viability at 72 h, 5 µM in data set [1] worked out at 110%. Besides, the Survival in data set [2] worked out at 36.37%.

For the compound `CC(=O)O[C@H]1C[C@@]2(C)[C@@H](CC(=O)[C@H]3[C@@]4(C)CC[C@@H](OC(=O)CCCCO[N+](=O)[O-])[C@@H](C)[C@@H]4CC[C@@]32C)/C1=C(\CCC=C(C)C)C(=O)OCc1ccccc1`, the viability at 72 h, 5 µM in data set [1] was determined as 112%. For the same compound, in data set [2], the Survival is listed as 20.75%.

With `CC(=O)O[C@H]1C[C@@]2(C)[C@@H](C[C@@H](O)[C@H]3[C@@]4(C)CC[C@@H](O)[C@@H](C)[C@@H]4CC[C@@]32C)/C1=C(\CCC=C(C)C)C(=O)Oc1ccc(CCO[N+](=O)[O-])cc1`, the viability at 72 h, 5 µM in data set [1] amounted to 83.7%. In addition, the Survival in data set [2] is listed as 45.82%.

In the case of `CC(=O)O[C@H]1C[C@@]2(C)[C@@H](C[C@@H](O)[C@H]3[C@@]4(C)CC[C@@H](OC(=O)c5ccccc5C(=O)Oc5ccc(CCO[N+](=O)[O-])cc5)[C@@H](C)[C@@H]4CC[C@@]32C)/C1=C(\CCC=C(C)C)C(=O)OCc1ccccc1`, the viability at 72 h, 5 µM in data set [1] came to 87.5%. Moreover, the Survival in data set [2] is 75.04%.
